Measurements from patent publication US20190328706A1, “COMPOSITIONS COMPRISING AN INTEGRIN INHIBITOR AND AGENTS WHICH INTERACT WITH A CHEMOKINE AND METHODS OF USE THEREOF” (Saint Louis University, priority 2016, published 2019).
Read-outs that look alike come from different tables or passages of the source.

Legend:
[1] = test system: murine HSPCs; test: Colony forming cell (CFC/CFU) assay of mobilized peripheral blood, DBA/2 mice; assay type: in vivo; conditions: for amount of CFU-C cells mobilized in combination with Groβt versus inhibitor alone: DBA/2J mice, FIG. 16
Experimental: The VLA-4 inhibitors Examples 1220, 1221, 1224, 1610, and 1611 were prepared in DMSO/10 mM sodium bicarbonate pH 8/saline (1%/49.5%/49.5%) and injected subcutaneously (SC) at a dose of 3 mg/kg.
(§1) Peripheral blood (PB) was drawn from the facial vein without anaesthesia into K/EDTA anti-coagulated tubes (Sarstedt AG & Co, Numbrecht, Germany). Red blood cells were removed from 25 L aliquots of blood using hypotonic lysis (Ammonium-Chloride-Potassium, ACK buffer, 5-10 min at RT) and samples were mixed with 2.5 mL methylcellulose media supplemented with a cocktail of recombinant cytokines (MethoCult 3434; Stem Cell Technologies, Vancouver, BC, Canada). Cultures were plated in duplicate in 35 mm dishes and placed in a humidified chamber with 5% CO2 at 37° C. After 7 d of culture, colonies containing at least 50 cells were counted using an inverted microscope in a blinded fashion.
(§2) Recombinant human CXCL2 (Groβt; R&D systems) was reconstituted in sterile Ca^+2/Mg^+2-free phosphate buffered saline (PBS) and injected subcutaneously (SC) at a dose of 2.5 mg/kg. Firategrast (U.S. Patent Application No. 2014/051655) was dissolved in Ca^+2/Mg^+2-free PBS plus 1% ethanol and injected intravenously at a dose of 100 mg/kg. RhG-CSF (Neupogen®, Filgrastim, Amgen, Thousand Oaks, Calif., USA) diluted in PBS was injected i.p. every 12 hrs at a dose of 100 μg/kg for a total of 9 (day 5) doses.
as §1, with “Co, Nimbrecht,” for “Co, Numbrecht,”, “25 μL” for “25 L”
as §2, with “(published structure: C27H27F2NO6; U.S.” for “(U.S.”

[2] = test system: human G2 acute lymphoblastic leukemia (ALL) cells; test: Flow cytometry cell-based assay: inhibition of soluble VCAM-1 binding to G2 ALL cells
Experimental: (§3) Compounds were tested for their ability to inhibit the binding of soluble VCAM-1 to human G2 acute lymphoblastic leukemia (ALL) cells. Briefly, G2 ALL cells are pre-incubated with increasing concentrations (0.001 to 1000 nM) of compounds for 30 minutes. Soluble VCAM/Fc chimera protein (R&D systems) is then added to the mixture and the cells incubated for an additional 30 minutes. Afterwards, cells are washed and VCAM-1 is detected using PE-conjugated secondary mAbs. In each experiment, an aliquot of cells will be stained with isotype control mAbs to serve as a negative control. The percentage of VCAM-1 binding cells was then determined by flow cytometry.
as §3, with “(ALL) cells or 5TGMI myeloma” for “(ALL)”, “ALL or 5TGMI” for “ALL”

[3] = test system: LSK cells; test: Flow cytometric enumeration of mobilized LSK cells, DBA/2J mice; assay type: in vivo; conditions: for LSK cell mobilization compared with firategrast: FIG. 17
Experimental: Peripheral blood (PB) was drawn from the facial vein without anaesthesia into K/EDTA anti-coagulated tubes (Sarstedt AG & Co, Nimbrecht, Germany). Cell counts (WBC) were determined using an automatic hemocytometer (Hemavet 950, Drew Scientific, Dallas, Tex.). Red blood cells were removed from 25 μL aliquots of blood using hypotonic lysis (Ammonium-Chloride-Potassium, ACK buffer, 5-10 min at RT). Samples were resuspended in staining buffer (PBS supplemented with 0.5% bovine serum albumin and 2 mM EDTA) and incubated for 30 min at 4° C. with pre-titrated saturating dilutions of the following fluorochrome-labeled monoclonal antibodies (BD Biosciences, San Jose, Calif.; clone designated in parenthesis): Sca1-PE (D7), CD117-BV421 (ACK2), lineage-APC (17A2, RB6-8C5, RA3-6B2, Ter-119, M/170) and CD45-A700 (30-F11). Dead cells were excluded from these assays by staining with 2 μg/mL 7-amino-actinomycin D (Molecular Probes, Eugene, Oreg.) for 5 min prior to analysis. Appropriate isotype-matched negative controls were used to assess background fluorescence intensity. Samples were analyzed on a Beckman Coulter Gallios flow cytometer and data were analyzed using FlowJo software (TreeStar, Ashland, Oreg.). Absolute numbers of immunophenotypically defined populations (e.g. LSK) were calculated by identifying CD45 positive cells as WBC from the corresponding cell count analysis. Statistical comparisons of flow cytometry data were performed using an unpaired two-tailed Student t-test (GraphPad Prism). P-values ≤0.05 were considered significant.

[4] = test system: 5TGMI myeloma cells; test: Flow cytometry cell-based assay: inhibition of soluble VCAM-1 binding to 5TGMI myeloma cells; conditions: FIG. 12
Experimental: as §3, with “(ALL) cells or 5TGMI myeloma” for “(ALL)”, “ALL or 5TGMI” for “ALL”

[5] = Table 12; inhibition of sVCAM-1 binding to human G2 ALL cells; read-out: sVCAM-1 IC50
[6] = Table 10; inhibition of sVCAM-1 binding to human G2 ALL cells; read-out: sVCAM-1 IC50
[7] = flow cytometry, FIG. 5, 8, 9, 12
[8] = Table 8; inhibition of sVCAM-1 binding to human G2 ALL cells; read-out: sVCAM-1 IC50
[9] = flow cytometry, FIG. 6, 7, 10, 11

SMILES | IC50 [2, 8] [nM] | inhibition of sVCAM-1 binding compared with Firategrast [2, 7] | LSK cell mobilization compared with firategrast [3] | further results
CCOCc1cc(OC)c(-c2ccc(C[C@H](NC(=O)c3c(Cl)cccc3Cl)C(=O)O)cc2C(C)O)c(OC)c1 (stereo partly drawn) [Cmpd 12, (2S)-2-(2,6-dichlorobenzamido)-3-(4′-(ethoxymethyl)-2-(1-hydroxyethyl)-2′,6′-dimethoxy-[1,1′-biphenyl]-4-yl)propanoic acid] |  |  |  | amount of CFU-C cells mobilized in combination with Groβt versus inhibitor alone [1]: nearly doubled; IC50 [2, 5]: 3.33 nM
CCOCc1cc(OC)c(-c2ccc(C[C@H](NC(=O)[C@@H]3CCCN3S(=O)(=O)c3ccccc3)C(=O)O)cc2)c(OC)c1 [Cmpd 35, (S)-3-(4′-(ethoxymethyl)-2′,6′-dimethoxy-[1,1′-biphenyl]-4-yl)-2-((S)-1-(phenylsulfonyl)pyrrolidine-2-carboxamido)propanoic acid] |  |  |  | amount of CFU-C cells mobilized in combination with Groβt versus inhibitor alone [1]: nearly doubled; IC50 [2, 5]: 0.83 nM
CCOCc1cc(OC)c(-c2ccc(C[C@H](NC(=O)[C@@H]3CCCN3S(=O)(=O)c3cc(Cl)cc(Cl)c3)C(=O)O)cc2)c(OC)c1 [Cmpd 36, (S)-2-((S)-1-((3,5-dichlorophenyl)sulfonyl)pyrrolidine-2-carboxamido)-3-(4′-(ethoxymethyl)-2′,6′-dimethoxy-[1,1′-biphenyl]-4-yl)propanoic acid] |  |  |  | amount of CFU-C cells mobilized in combination with Groβt versus inhibitor alone [1]: nearly doubled; IC50 ([2]; read-out: sVCAM-1 IC50; Table 12; inhibition of sVCAM-1 binding to human G2 ALL cells): 0.49 nM
COc1cccc(OC)c1-c1ccc(C[C@H](NC(=O)[C@]2(C)CCCN2S(=O)(=O)c2cc(Cl)cc(Cl)c2)C(=O)O)cc1 [Compound 824] |  | significantly more potent | greater extent than firategrast | IC50 [2, 6]: 0.6 nM
COc1cc(CC(=O)N[C@@H](CC(C)C)c2cc(CCC(=O)O)on2)ccc1NC(=O)Nc1ccccc1C [Compound 842] |  | significantly more potent |  | CFU-C mobilization, VLA4 blockade combined with CXCR2 stimulation ([1]; DBA2/J mice, FIG. 15/29): mobilized; IC50 [2, 6]: 0.4 nM; LSK mobilization, VLA4 blockade combined with CXCR2 stimulation ([3]; DBA2/J mice, FIG. 15/29): mobilized
CCOCc1cc(OC)c(-c2ccc(C[C@H](NC(=O)[C@@H]3CCCN3S(=O)(=O)c3cc(Cl)cc(Cl)c3)C(=O)O)cc2)c(OC)c1 [Compound 1611, (S)-2-((S)-1-((3,5-dichlorophenyl)sulfonyl)pyrrolidine-2-carboxamido)-3-(4′-(ethoxymethyl)-2′,6′-dimethoxy-[1,1′-biphenyl]-4-yl)propanoic acid] | 0.49 | significantly more potent than Firategrast | greater extent than firategrast | inhibition of VCAM binding in 5TGMI cells compared with Firategrast / BIO5192 [4]: even more potent than BIO5192
COCCOCc1cc(OC)c(-c2ccc(C[C@H](NC(=O)[C@@H]3CCN3S(=O)(=O)c3cc(Cl)cc(Cl)c3)C(=O)O)cc2)c(OC)c1 [Compound 1746, (S)-2-((S)-1-((3,5-dichlorophenyl)sulfonyl)azetidine-2-carboxamido)-3-(2′,6′-dimethoxy-4′-((2-methoxyethoxy)methyl)-[1,1′-biphenyl]-4-yl)propanoic acid] | 3.79 |  |  | inhibition of sVCAM-1 binding compared with other inhibitors [2, 9]: inhibition was greatest
COCCOCc1cc(OC)c(-c2ccc(C[C@H](NC(=O)[C@@H]3CCCN3S(=O)(=O)c3ccc(C(=O)O)cc3)C(=O)O)cc2)c(OC)c1 [Compound 1747, 4-(((S)-2-(((S)-1-carboxy-2-(2′,6′-dimethoxy-4′-((2-methoxyethoxy)methyl)-[1,1′-biphenyl]-4-yl)ethyl)carbamoyl)pyrrolidin-1-yl)sulfonyl)benzoic acid] | 7.58 |  |  | 
COCCOCCOCCOCc1cc(OC)c(-c2ccc(C[C@H](NC(=O)[C@@H]3CCN3S(=O)(=O)c3ccccc3)C(=O)O)cc2)c(OC)c1 [Compound 2087, (S)-3-(4′-(2,5,8,11-tetraoxadodecyl)-2′,6′-dimethoxy-[1,1′-biphenyl]-4-yl)-2-((S)-1-(phenylsulfonyl)azetidine-2-carboxamido)propanoic acid] | 2.06 |  |  | 
COCCOCCOCCOCc1cc(OC)c(-c2ccc(C[C@H](NC(=O)[C@@H]3CCN3S(=O)(=O)c3cc(Cl)cc(Cl)c3)C(=O)O)cc2)c(OC)c1 [Compound 2088, (S)-3-(4′-(2,5,8,11-tetraoxadodecyl)-2′,6′-dimethoxy-[1,1′-biphenyl]-4-yl)-2-((S)-1-((3,5-dichlorophenyl)sulfonyl)azetidine-2-carboxamido)propanoic acid] | 0.7 |  |  | inhibition of sVCAM-1 binding compared with other inhibitors [2, 9]: inhibition was greatest

The next lines start with results.

IC50 [2, 8] [nM] | SMILES | inhibition of sVCAM-1 binding compared with Firategrast [2, 7] | LSK cell mobilization compared with firategrast [3] | further results
0.83 | CCOCc1cc(OC)c(-c2ccc(C[C@H](NC(=O)[C@@H]3CCCN3S(=O)(=O)c3ccccc3)C(=O)O)cc2)c(OC)c1 [Compound 1610, (S)-3-(4′-(ethoxymethyl)-2′,6′-dimethoxy-[1,1′-biphenyl]-4-yl)-2-((S)-1-(phenylsulfonyl)pyrrolidine-2-carboxamido)propanoic acid] | significantly more potent than Firategrast | greater extent than firategrast | inhibition of VCAM binding in 5TGMI cells compared with Firategrast / BIO5192 [4]: even more potent than BIO5192
3.33 | CCOCc1cc(OC)c(-c2ccc(C[C@H](NC(=O)c3c(Cl)cccc3Cl)C(=O)O)cc2C(C)O)c(OC)c1 (stereo partly drawn) [Compound 1633, (2S)-2-(2,6-dichlorobenzamido)-3-(4′-(ethoxymethyl)-2-(1-hydroxyethyl)-2′,6′-dimethoxy-[1,1′-biphenyl]-4-yl)propanoic acid] | significantly more potent than Firategrast | greater extent than firategrast | 
